According to patent US8304539B2, “Fused heteroaryl modulators of glucocorticoid receptor, AP-1, and/or NF-κB activity and use thereof” (Bristol-Myers Squibb Company, priority 2008, dated 2012):
Read-outs that look alike come from different tables or passages of the source.

What was measured:
[1] = target: T1, human full-length glucocorticoid receptor (Homo sapiens, UniProt P04150); test: GR binding Assay II (fluorescence polarization competitor assay); conditions: given where AP-1 EC50 is greater than 1 uM and/or maximal inhibition is less than 20%; read-out: GR (Ki, nM) (measured in GR binding Assay II)
T1 construct: recombinantly expressed human full-length glucocorticoid receptor; purchased PanVera Co., Madison, Wis; P2816
T1 sequence (P04150 1-777): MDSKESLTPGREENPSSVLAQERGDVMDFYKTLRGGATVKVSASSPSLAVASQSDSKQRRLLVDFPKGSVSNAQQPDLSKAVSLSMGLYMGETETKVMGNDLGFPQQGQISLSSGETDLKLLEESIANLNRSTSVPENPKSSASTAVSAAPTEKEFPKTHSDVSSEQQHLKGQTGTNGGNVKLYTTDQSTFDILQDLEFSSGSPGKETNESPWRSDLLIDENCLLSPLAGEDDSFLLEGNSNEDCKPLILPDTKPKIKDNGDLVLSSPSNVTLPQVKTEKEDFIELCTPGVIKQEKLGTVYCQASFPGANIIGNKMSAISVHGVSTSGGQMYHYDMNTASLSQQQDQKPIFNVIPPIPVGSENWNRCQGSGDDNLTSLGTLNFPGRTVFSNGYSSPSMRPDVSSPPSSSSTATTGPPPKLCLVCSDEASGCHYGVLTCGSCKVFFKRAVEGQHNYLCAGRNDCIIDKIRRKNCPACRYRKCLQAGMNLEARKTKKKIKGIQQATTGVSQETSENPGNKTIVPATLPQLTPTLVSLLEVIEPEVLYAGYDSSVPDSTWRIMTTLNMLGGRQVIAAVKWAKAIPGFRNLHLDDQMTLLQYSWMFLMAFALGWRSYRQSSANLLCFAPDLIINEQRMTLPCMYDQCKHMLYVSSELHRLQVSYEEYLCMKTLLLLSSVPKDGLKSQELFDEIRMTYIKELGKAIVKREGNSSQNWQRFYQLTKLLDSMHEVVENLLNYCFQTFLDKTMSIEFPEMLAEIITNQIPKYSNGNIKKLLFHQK
Experimental: Glucocorticoid Receptor Binding Assay (II)
In order to measure the binding of compounds on the glucocorticoid receptor a commercially available kit was used (Glucocorticoid receptor competitor assay kit, PanVera Co., Madison, Wis., P2816). Briefly, a cell lysate containing recombinantly expressed human full-length glucocorticoid receptor was mixed with a fluorescently labeled glucocorticoid (1 nM Fluormone GS1) in the presence or absence of test compound. After one hour at room temperature, the fluorescence polarization (FP) of the samples were measured. The FP of a mixture of receptor, fluorescent probe (i.e. Fluormone GS1) and 1 mM dexamethasone represented background fluorescence or 100% inhibition, whereas, the FP of the mixture without dexamethasone was taken to be 100% binding. The percentage inhibition of test molecules were then compared to the sample with 1 mM dexamethasone and expressed as % relative binding activity with dexamethasone being 100% and no inhibition is 0%. Test molecules were analyzed in the concentration range from 2.4 nM to 40 microMolar.

[2] = tested on: AP-1; test: Cellular transrepression assay (AP-1 luciferase reporter in A549 cells, PMA activated); type: cell-based; conditions: 10 ng/ml PMA; for EC50: read-out: AP-1 (EC50, nM) (measured in cellular transrepression assay); for Emax: read-out: AP-1 Max % inhibition (measured in cellular transrepression assay)
Experimental: Cellular Transrepressional Assay
To measure the ability of test molecules to inhibit AP-1 induced transcriptional activity we utilized an A549 cell which was stably transfected with a plasmid containing 7×AP-1 DNA binding sites (pAP-1-Luc plasmid, Stratagene Co. La Jolla, Calif.) followed by the gene for luciferase. Cells were activated with 10 ng/ml of phorbol myristic acid (PMA) plus or minus test molecules for 7 hours. After 7 hours a luciferase reagent was added to measure luciferase enzymatic activity in the cell. After a 10 minute incubation of luciferase reagent with cells, luminescence was measured in a TopCount luminescence counter. Repression of AP-1 activity was calculated as the percentage decrease in the signal induced by PMA alone. Test molecules were analyzed in the concentration range from 0.1 nM to 40 μM. EC50s were determined by using standard curve fitting methods such as Excel fit (Microsoft Co.). An EC50 is the test molecule concentration at which there is a 50% repression of the maximal inhibition of transcription, i.e. a 50% reduction of AP-1 activity.

Compound | Ki [1] | EC50 ([2]; 7 h) | Emax ([2]; 7 h) | also measured
Cc1ccc2c(n1)Oc1nc(-c3ccc(C(=O)N4CCC(F)(F)C4)c(F)c3)ccc1[C@H]2C(C)(C)C(=O)Nc1nncs1 [Example 39] | 38.2 nM | – | – | –
C=Cc1ccc2c(n1)Oc1nc(-c3ccc(C(=O)N(C)C)cc3)ccc1C2C(C)(C)C(=O)Nc1nncs1 (stereo not drawn) [Example 64, 4-(5-(1,1-dimethyl-2-oxo-2-(1,3,4-thiadiazol-2-ylamino)ethyl)-8-vinyl-5H-pyrido[3′,2′:5,6]pyrano[2,3-b]pyridin-2-yl)-N,N-dimethylbenzamide] | 80.8 nM | – | – | –
Cc1ccc2c(n1)Oc1nc(-c3ccc(S(=O)(=O)N(C)C)cc3)ccc1[C@H]2C(C)(C)C(=O)Nc1nncs1 [Example 25] | 172 nM | – | – | –
Cc1ccc2c(n1)Oc1nc(-c3ccc(C(=O)N4CCC[C@@H]4C(N)=O)cc3)ccc1[C@H]2C(C)(C)C(=O)Nc1nncs1 [Example 90] | 103 nM | – | – | –
Cc1ccc2c(n1)Oc1nc(-c3ccc(Oc4ccccc4)cc3)ccc1[C@H]2C(C)(C)C(=O)Nc1nncs1 [Example 23] | 4.59 nM | – | – | –
Cc1ccc2c(n1)Oc1nc(-c3ccc(CN4CCCC4)cc3)ccc1[C@H]2C(C)(C)C(=O)Nc1nncs1 [Example 80] | 1150 nM | – | – | –
Cc1ccc2c(n1)Oc1nc(-c3ccc(C(=O)N(C)C)cc3)ccc1[C@H]2C(C)(C)C(=O)Nc1ncc(C(=O)NC2CC2)s1 [Example 53] | 106 nM | – | – | –
Cc1ccc2c(n1)Oc1nc(-c3ccc(C(=O)NC(C)(C)C)cc3)ccc1[C@H]2C(C)(C)C(=O)Nc1nncs1 [Example 26] | 591 nM | – | – | –
Cc1ccc2c(n1)Oc1nc(-c3ccc(C(=O)N4CCOCC4)cc3)ccc1[C@H]2C(C)(C)C(=O)Nc1nnn(C)n1 [Example 92, 2-methyl-2-((5S)-2-methyl-8-(4-(4-morpholinylcarbonyl)phenyl)-5H-pyrido[3′,2′:5,6]pyrano[2,3-b]pyridin-5-yl)-N-(2-methyl-2H-tetrazol-5-yl)propanamide] | 153 nM | – | – | –
Cc1ccc2c(n1)Oc1nc(-c3ccc(S(C)(=O)=O)cc3)ccc1[C@H]2C(C)(C)C(=O)Nc1nncs1 [Example 37, 2-methyl-2-((5S)-2-methyl-8-(4-(methylsulfonyl)phenyl)-5H-pyrido[3′,2′:5,6]pyrano[2,3-b]pyridin-5-yl)-N-1,3,4-thiadiazol-2-ylpropanamide] | 78.9 nM | – | – | –
Cc1ccc2c(n1)Oc1nc(-c3ccc([S+]([O-])C(C)C)cc3)ccc1C2C(C)(C)C(=O)Nc1nncs1 (stereo in doubt) [Example 82, 2-((5S)-2-(4-(isopropylsulfinyl)phenyl)-8-methyl-5H-pyrido[3′,2′:5,6]pyrano[2,3-b]pyridin-5-yl)-2-methyl-N-1,3,4-thiadiazol-2-ylpropanamide] | – | 181 nM | 34.4% | –
CN(C)c1ccc2c(n1)Oc1nc(-c3ccc(C(=O)N4CCOCC4)cc3)ccc1C2C(C)(C)C(=O)Nc1nncs1 (stereo not drawn) [Example 72] | – | 18 nM | 48.7% | –
Cc1ccc2c(n1)Oc1nc(-c3ccc(C(=O)N(C)C)cc3)ccc1C2C(C)(C)C(=O)Nc1nncs1 (stereo not drawn) [Example 10, 4-(5-(1,1-dimethyl-2-oxo-2-(1,3,4-thiadiazol-2-ylamino)ethyl)-8-methyl-5H-pyrido[3′,2′:5,6]pyrano[2,3-b]pyridin-2-yl)-N,N-dimethylbenzamide] | – | 189 nM | 39% | –
CCN(C)C(=O)c1ccc(-c2ccc3c(n2)Oc2nc(C)ccc2C3C(C)(C)C(=O)Nc2nncs2)cc1 (stereo not drawn) [Example 14, 4-(5-(1,1-dimethyl-2-oxo-2-(1,3,4-thiadiazol-2-ylamino)ethyl)-8-methyl-5H-pyrido[3′,2′:5,6]pyrano[2,3-b]pyridin-2-yl)-N-ethyl-N-methylbenzamide] | – | 97.2 nM | 58% | –
Cc1ccc2c(n1)Oc1nc(-c3ccc(C(=O)N(C)C)cc3)ccc1[C@H]2C(C)(C)C(=O)Nc1ncns1 [Example 13] | – | 233 nM | 38.1% | –
Cc1nnc(NC(=O)C(C)(C)C2c3ccc(Cl)nc3Oc3nc(-c4ccc(C(=O)N5CCOCC5)cc4)ccc32)s1 (stereo not drawn) [Example 63] | – | – | – | AP-1 Max % inhibition (measured in cellular transrepression assay) ([2]; 7 hours): 54.57%; EC50 ([2]; 7 hours): 87 nM

Compound | Ki [1] | EC50 ([2]; 7 h) | Emax ([2]; 7 h) | also measured
Cc1ccc2c(n1)Oc1nc(-c3ccc(C(=O)N4CCC(F)(F)C4)cc3)ccc1[C@H]2C(C)(C)C(=O)Nc1nncs1 [Example 40] | – | 539 nM | 43.3% | –
Cc1ccc2c(n1)Oc1nc(-c3ccc(C(=O)N4CCCC4)cc3)ccc1[C@H]2C(C)(C)C(=O)Nc1nncs1 [Example 31] | – | 376 nM | 49.3% | –
Cc1nnc(NC(=O)C(C)(C)C2c3ccc(Cl)nc3Oc3nc(-c4ccc(C(=O)N(C)C)cc4)ccc32)s1 (stereo not drawn) [Example 56] | – | 70.6 nM | 45.9% | –
CCN(C)C(=O)c1ccc(-c2ccc3c(n2)Oc2nc(C)ccc2[C@@H]3C(C)(C)C(=O)Nc2nnc(C(=O)NCC(F)(F)F)s2)cc1 [Example 87] | – | 574 nM | 51.7% | –
CCN(C)C(=O)c1ccc(-c2ccc3c(n2)Oc2nc(C)ccc2[C@@H]3C(C)(C)C(=O)Nc2nnc(C(=O)NC(C)C)s2)cc1 [Example 86] | – | 183 nM | 61.6% | –
CCN(C)C(=O)c1ccc(-c2ccc3c(n2)Oc2nc(Cl)ccc2C3C(C)(C)C(=O)Nc2nncs2)cc1 (stereo not drawn) [Example 59] | – | 15.8 nM | 62.3% | –
Cc1nsc(NC(=O)C(C)(C)C2c3ccc(Cl)nc3Oc3nc(-c4ccc(C(=O)N(C)C)cc4)ccc32)n1 (stereo not drawn) [Example 57] | – | 68.5 nM | 31.4% | –
CCN(C)C(=O)c1ccc(-c2ccc3c(n2)Oc2nc(C)ccc2[C@@H]3C(C)(C)C(=O)Nc2nnc(C(=O)N3CCOCC3)s2)cc1 [Example 50] | – | 908 nM | 35.4% | –
CCN(C)C(=O)c1ccc(-c2ccc3c(n2)Oc2nc(C)ccc2[C@@H]3C(C)(C)C(=O)Nc2nnc(C(=O)NC)s2)cc1 [Example 46] | – | 759 nM | 36% | –
CN(C)C(=O)c1ccc(-c2ccc3c(n2)Oc2cnccc2C3C(C)(C)C(=O)Nc2nncs2)cc1 (stereo not drawn) [Example 1, 4-(5-(1,1-dimethyl-2-oxo-2-(1,3,4-thiadiazol-2-ylamino)ethyl)-5H-pyrido[4′,3′:5,6]pyrano[2,3-b]pyridin-2-yl)-N,N-dimethylbenzamide] | – | 255 nM | 29.3% | –
Cc1ccc2c(n1)Oc1nc(-c3ccc(SC(C)C)cc3)ccc1[C@H]2C(C)(C)C(=O)Nc1nncs1 [Example 27] | – | 41.9 nM | 32.4% | –
CN(C)C(=O)c1ccc(-c2ccc3c(n2)Oc2ncccc2C3C(C)(C)C(=O)Nc2nncs2)cc1 (single isomer, unassigned) [Example 8] | – | 194 nM | 45.2% | –
Cc1ccc2c(n1)Oc1nc(-c3ccc(C(=O)N4CCC4)cc3)ccc1[C@H]2C(C)(C)C(=O)Nc1nncs1 [Example 38] | – | 470 nM | 41.9% | –
CN(C)C(=O)c1ccc(-c2ccc3c(n2)Oc2nc(C#N)ccc2C3C(C)(C)C(=O)Nc2nncs2)cc1 (stereo not drawn) [Example 66, 4-(8-cyano-5-(1,1-dimethyl-2-oxo-2-(1,3,4-thiadiazol-2-ylamino)ethyl)-5H-pyrido[3′,2′:5,6]pyrano[2,3-b]pyridin-2-yl)-N,N-dimethylbenzamide] | – | 335 nM | 38.9% | –
Cc1ccc2c(n1)Oc1nc(-c3ccc(C(=O)N(C)C)cc3)ccc1[C@H]2C(C)(C)C(=O)Nc1nnn(C)n1 [Example 94] | – | 790 nM | 35.9% | –
CCNC(=O)c1nnc(NC(=O)C(C)(C)[C@H]2c3ccc(C)nc3Oc3nc(-c4ccc(C(=O)N(C)CC)cc4)ccc32)s1 [Example 48] | – | 341 nM | 59.4% | –
